Assay results as given in patent publication US9999222B2, “Herbicidal combination comprising azines” (BASF SE, priority 2014, dated 2018).

Key:
Assay in all cases: Greenhouse test, pre-emergence treatment
CENCY = assay type: in vivo; conditions: 480 h, individual, read-out: observed % activity 20 DAT
ABUTH = assay type: in vivo, Abutilon theophrasti; conditions: Abutilon theophrasti, 480 h
Source text: (§1) The culture containers used were plastic flowerpots containing loamy sand with approximately 3.0% of humus as the substrate. The seeds of the test plants were sown separately for each species.
(§2) For the pre-emergence treatment, the active ingredients, which had been suspended or emulsified in water, were applied directly after sowing by means of finely distributing nozzles. The containers were irrigated gently to promote germination and growth and subsequently covered with transparent plastic hoods until the plants had rooted. This cover caused uniform germination of the test plants, unless this had been impaired by the active ingredients.
(§3) Depending on the species, the plants were kept at 10-25° C. or 20-35° C., respectively.
(§4) The test period extended over 2 to 4 weeks. During this time, the plants were tended, and their response to the individual treatments was evaluated.
(§5) Evaluation was carried out using a scale from 0 to 100. 100 means no emergence of the plants, or complete destruction of at least the aerial moieties, and 0 means no damage, or normal course of growth. A moderate herbicidal activity is given at values of at least 60, a good herbicidal activity is given at values of at least 70, and a very good herbicidal activity is given at values of at least 85.
(§6) The respective stated components a and b, and if appropriate, c were formulated as a 10% by weight strength emulsion concentrate and, with addition of the amount of solvent system, introduced into the spray liquor used for applying the active compound.
(§7) In the examples, the solvent used was water.
(§8) In the examples below, using the method of S. R. Colby (1967) “Calculating synergistic and antagonistic responses of herbicide combinations”, Weeds 15, p. 22ff., the value E, which is expected if the activity of the individual active compounds is only additive, was calculated. E=X+Y−(X·Y/100) where • X=percent activity using active compound a at an application rate A; • Y=percent activity using active compound b at an application rate B; • E=expected activity (in %) by a+b at application rates A+B.
(§9) If the value found experimentally is higher than the value E calculated according to Colby, a synergistic effect is present.

KCHSC = assay type: in vivo, Kochia scoparia; conditions: Bassia scoparia, pre-emergence, 480 h
Source text: as §1, §2, §3, §4, §5, §6, §7, §8, §9

POLCO = assay type: in vivo, Polygonum convolvulus; conditions: pre-emergence
Source text: as §1, §2, §3, §4, §5, §6, §7, §8, §9

GALAP = assay type: in vivo, Galium aparine; conditions: Galium aparine, pre-emergence, 480 h
Source text: as §1, §2, §3, §4, §5, §6, §7, §8, §9

GERPU = assay type: in vivo, Geranium pusillum; conditions: Geranium pusillum, pre-emergence, 480 h
Source text: as §1, §2, §3, §4, §5, §6, §7, §8, §9

COMBE = assay type: in vivo, Commelina benghalensis; conditions: Commelina benghalensis, pre-emergence, 480 h
Source text: as §1, §2, §3, §4, §5, §6, §7, §8, §9

SIDRH = assay type: in vivo, Sida rhombifolia; conditions: Sida rhombifolia, pre-emergence, 480 h
Source text: as §1, §2, §3, §4, §5, §6, §7, §8, §9

ANTAR = assay type: in vivo; conditions: Anthemis arvensis, 480 h, 20 DAT, read-out: observed % activity
Source text: as §1, §2, §3, §4, §5, §6, §7, §8, §9

IPOHE = assay type: in vivo, Ipomoea hederacea; conditions: Ipomoea hederacea, 480 h, 30 g ai/ha, read-out: observed % activity 20 DAT
Source text: as §1, §2, §3, §4, §5, §6, §7, §8, §9

EPHHL = assay type: in vivo, Euphorbia heterophylla; conditions: Euphorbia heterophylla, pre-emergence, 480 h, pre-emergence, 30 g ai/ha; read-out: observed % activity 20 DAT
Source text: as §1, §2, §3, §4, §5, §6, §7, §8, §9

[1] = 6 g ai/ha, 20 DAT, read-out: observed % activity
[2] = 12 g ai/ha, 20 DAT, read-out: observed % activity
[3] = 15 g ai/ha, read-out: observed % activity 20 DAT
[4] = 20 g ai/ha, 20 DAT, read-out: observed % activity
[5] = 30 g ai/ha, read-out: observed % activity 20 DAT
[6] = 40 g ai/ha, 20 DAT, read-out: observed % activity

Compound: Cc1nn(-c2cc(NS(C)(=O)=O)c(Cl)cc2Cl)c(=O)n1C(F)F [Sulfentrazone, sulfentrazone]
- inhibition at 5 g/ha (CENCY; use rate 5 g ai/ha): 20%
- inhibition at 10 g/ha (CENCY; use rate 10 g ai/ha): 30%
- inhibition at 6 g/ha (ABUTH; [1]): 20%
- inhibition at 12 g/ha (ABUTH; [2]): 45%
- inhibition at 10 g/ha (ABUTH; ABUTH, individual, use rate 10 g ai/ha, read-out: observed % activity 20 DAT): 25%
- inhibition at 12 g/ha (KCHSC; [2]): 98%
- inhibition at 5 g/ha (KCHSC; KCHSC, individual, use rate 5 g ai/ha, read-out: observed % activity 20 DAT): 70%
- inhibition at 10 g/ha (KCHSC; KCHSC, individual, use rate 10 g ai/ha, read-out: observed % activity 20 DAT): 65%
- inhibition at 6 g/ha (POLCO; Fallopia convolvulus, 480 h, 6 g ai/ha, 20 DAT, read-out: observed % activity): 0%
- inhibition at 12 g/ha (POLCO; Fallopia convolvulus, 480 h, 12 g ai/ha, 20 DAT, read-out: observed % activity): 0%
- inhibition at 10 g/ha (POLCO; Fallopia convolvulus, 480 h, POLCO, individual, use rate 10 g ai/ha, read-out: observed % activity 20 DAT): 25%
- observed % activity 20 DAT (POLCO; POLCO, individual, use rate 5 g ai/ha): 40%
- inhibition at 6 g/ha (GALAP; [1]): 0%
- inhibition at 5 g/ha (GALAP; GALAP, individual, use rate 5 g ai/ha, read-out: observed % activity 20 DAT): 25%
- inhibition at 10 g/ha (GALAP; GALAP, individual, use rate 10 g ai/ha, read-out: observed % activity 20 DAT): 50%
- inhibition at 6 g/ha (GERPU; [1]): 40%
- inhibition at 12 g/ha (GERPU; [2]): 45%
- inhibition at 6 g/ha (COMBE; [1]): 20%
- inhibition at 12 g/ha (COMBE; [2]): 45%
- inhibition at 10 g/ha (COMBE; COMBE, individual, use rate 10 g ai/ha, read-out: observed % activity 20 DAT): 15%
- inhibition at 6 g/ha (SIDRH; [1]): 20%
- inhibition at 10 g/ha (SIDRH; SIDRH, individual, use rate 10 g ai/ha, read-out: observed % activity 20 DAT): 30%
- inhibition at 6 g/ha (ANTAR; 6 g ai/ha): 30%
- inhibition at 12 g/ha (ANTAR; 12 g ai/ha): 60%

Compound: CCc1cnc(C2=NC(C)(C(C)C)C(=O)N2)c(C(=O)O)c1 (centres unmarked) [imazethapyr]
- inhibition at 15 g/ha (ABUTH; [3]): 0%
- inhibition at 20 g/ha (ABUTH; [4]): 60%
- inhibition at 30 g/ha (ABUTH; [5]): 15%
- inhibition at 40 g/ha (ABUTH; [6]): 80%
- inhibition at 15 g/ha (KCHSC; [3]): 70%
- inhibition at 30 g/ha (KCHSC; [5]): 85%
- inhibition at 20 g/ha (POLCO; Fallopia convolvulus, 480 h, 20 g ai/ha, 20 DAT, read-out: observed % activity): 35%
- inhibition at 40 g/ha (POLCO; Fallopia convolvulus, 480 h, 40 g ai/ha, 20 DAT, read-out: observed % activity): 90%
- inhibition at 15 g/ha (POLCO; Fallopia convolvulus, 480 h, 15 g ai/ha, read-out: observed % activity 20 DAT): 30%
- inhibition at 30 g/ha (POLCO; Fallopia convolvulus, 480 h, 30 g ai/ha, read-out: observed % activity 20 DAT): 65%
- observed % activity 20 DAT (POLCO; 30 g ai/ha): 60%
- inhibition at 30 g/ha (IPOHE): 0%
- inhibition at 15 g/ha (GALAP; [3]): 50%
- inhibition at 30 g/ha (GALAP; [5]): 60%
- inhibition at 20 g/ha (GERPU; [4]): 20%
- inhibition at 40 g/ha (GERPU; [6]): 85%
- inhibition at 15 g/ha (GERPU; [3]): 30%
- inhibition at 30 g/ha (GERPU; [5]): 30%
- inhibition at 20 g/ha (COMBE; [4]): 45%
- inhibition at 40 g/ha (COMBE; [6]): 65%
- inhibition at 15 g/ha (COMBE; [3]): 0%
- inhibition at 30 g/ha (COMBE; [5]): 35%
- inhibition at 20 g/ha (SIDRH; [4]): 45%
- inhibition at 40 g/ha (SIDRH; [6]): 80%
- inhibition at 15 g/ha (SIDRH; [3]): 15%
- inhibition at 30 g/ha (SIDRH; [5]): 60%
- inhibition at 20 g/ha (ANTAR; 20 g ai/ha): 30%
- inhibition at 40 g/ha (ANTAR; 40 g ai/ha): 30%
- inhibition at 30 g/ha (EPHHL): 65%
